Measured values reported in patent US10329532B2, “Method to direct differentiation of pluripotent stem cells into functional heart muscle” (GEORG-AUGUST-UNIVERSITÄT GÖTTINGEN STIFTUNG ÖFFENTLICHEN …, priority 2013, dated 2019).
“Also recorded” adds a separate entry of the source. Where two headings read alike, the source gives them in different places.

Legend:
Assay type in all cases: cell-based, human
[1] = system: HES2 hPSCs; assay: 2D cardiac differentiation of hPSC (MESP1 qPCR day 3, α-actinin flow cytometry day 16, beating activity)
Source text: For this reason a cardiac differentiation protocol was firstly required which consistently produced cardiomyocytes and fibroblasts/stromal cells. The inventors optimized their cardiac differentiation protocol (FIG. 1a) for both yield and consistency, based on a previously published serum-free 2D hPSC differentiation protocol (Hudson et al. Stem Cells Dev 21, 1513-1523 (2012)). It was reasoned that robustness and efficiency could be enhanced if WNT activity was stabilized during the mesoderm induction phase. As surrogate marker for mesoderm induction MESP1 expression was analysed by qPCR on culture day 3; this was followed by flow cytometry for α-actinin (cardiomyocyte marker) at day 16, which were found correlated very well with the amount of beating activity.
Cardiac differentiation was optimized on the HES2 line. HES2 hPSCs were plated at 5×10^4 cells/cm^2 (1×10^5 cells/cm^2 for HES3 and hIPS lines) on 1:30 Matrigel/PBS coated-plates and cultured in 1:1 PSC-medium minus FGF-2 and HFF-conditioned medium (HFF-CM—harvested from 5 day confluent irradiated HFF cultures) with 10 ng/mL FGF2. For the hIPS line 10 μM Y-27632 was added to this medium. After 1 day the cells were rinsed with RPMI medium, then differentiated as indicated in each figure with 0.5 ml of medium in each well of a 24 well plate. The protocol details for each figure are outlined in FIG. 8.
(§1) Cells, BHMs or human heart biopsies were harvested and stored at −80° C. until RNA extraction using Trizol following manufacturer's instructions (Applied Biosystems). 1 μg of RNA was then treated with DNAse (Roche) followed by cDNA synthesis using a High Capacity cDNA Reverse Transcription Kit (Applied Biosystems). qPCR was performed using Fast SYBR Green Master Mix (Applied Biosystems) on a 384-well format AB7900 HT (Applied Biosystems). Gene expression was normalized using 2^−ΔCt or 2^−ΔΔCt using GAPDH as the housekeeping gene which we found to be consistently expressed between conditions in all of our experiments. Primer details are given in below Table 1.
(§2) Cells were stained either live or fixed using Histofix for 10 min at room temperature or ethanol. The cells were stained in 5% FBS in PBS (membrane blocking buffer) for cell surface markers (excluding TRA-1-60) and blocking buffer for internal markers. The cells were then stained with primary antibodies in blocking buffer for 45 min followed by secondary antibodies in blocking buffer and Hoechst for 30 min at 4° C. (Table 2). A BD LSRII was used for flow cytometry analysis (BD Biosystems). Live cells populations were gated based on forward-side scatter profiles; fixed cells populations were gated based on Hoechst staining. BD FACSDiva Software (BD Bioscience) or Cyflologic v1.2.1 (Cyflo Ltd) were used for analysis.

[2] = system: bioengineered heart muscle (BHM); assay: Isometric contraction measurements of BHM (twitch tension/force of contraction) in organ baths; settings: for twitch tension/force of contraction: growth factor added during cardiac maturation (FGF2: 10 ng/mL, TGFb1: 1 ng/mL)
Procedure: Briefly, contraction experiments are performed in organ baths at 37° C. under constant bubbling with 5% CO2 and 95% O2 to maintain a physiological pH in Tyrode's solution containing (all in mM): 120 NaCl, 1 MgCl2, 0.2 CaCl2, 5.4 KCl, 22.6 NaHCO3, 4.2 NaH2PO4, 5.6 glucose and 0.56 ascorbate. Calcium is adjusted using a 0.2 M calcium chloride solution. All BHM are analysed at 3 Hz with 5 ms square pulses of 200 mA electrical current in order to pace at approximately the embryonic heart rate. Stimulation frequency is altered to confirm proper force-frequency response (Bowditch mechanism). BHM are mechanically stretched at intervals of 125 μm until the maximum twitch force is observed (force-length response; Frank-Starling mechanism).
Briefly, all contraction experiments are performed in organ baths at 37° C. and physiological pH in Tyrode's solution containing (all in mM): 120 NaCl, 1 MgCl2, 0.2 CaCl2, 5.4 KCl, 22.6 NaHCO3, 4.2 NaH2PO4, 5.6 glucose and 0.56 ascorbate. Calcium is adjusted using a 0.2 M calcium chloride solution. All BHM are analysed at 3 Hz with 5 ms square pulses of 200 mA electrical current in order to pace at approximately the embryonic heart rate. Stimulation frequency is altered to confirm proper force-frequency response (Bowditch mechanism). BHM are mechanically stretched at intervals of 125 μm until the maximum twitch force is observed at 2 mM calcium (Frank-Starling mechanism). Subsequently, BHM are subjected to different calcium concentrations (0.2, 0.4, 0.8, 1.2, 1.6, 2.0, 2.4 mM) and the twitch force is recorded. For isoprenaline experiments the calcium concentration is adjusted to 0.6 mM and subsequently the isoprenaline concentration is adjusted to 1 μM.
(§3) BHM formation was optimized on the HES2 line. HES2 hPSCs were suspended 1:1 in PSC-medium minus FGF-2 and HFF-conditioned medium (HFF-CM—harvested from 5 day confluent irradiated HFF cultures) with 10 ng/mL FGF2 and mixed with a collagen I hydrogel. For the HES3, and hIPS lines 10 μM Y-27632 was also added to the medium. The collagen I matrix was formulated with acid-soluabilized bovine collagen I (Devro) with an equi-volume of 2×DMEM (Gibco) and neutralized using 0.1 M sodium hydroxide. The hPSC/collagen I matrix was formulated to give a final collagen I concentration of 1 mg/ml and 5×10^5 hPSC per 170 μl. For the HES3 and hIPS lines 1×10^6 and 0.5×10^6 cells were used respectively per 170 μl. For each BHM, 170 μl of the hPSC/collagen I matrix was pipette into circular molds (i.d.=4 mm, o.d.=10 mm) fabricated using poly(dimethylsiloxane) (Sylgard, Dow Corning). After 10 min of culture in the incubator at 37° C. the collagen gelled and 1.25 ml of 1:1 human foreskin fibroblast-conditioned medium with 10 ng/ml FGF2 was added per BHM. The following day the BHMs were rinsed with RPMI medium and then differentiated as indicated in each figure, with 1.25 ml of medium per BHM. At day 13 the BHM were transferred onto mechanical stimulators as indicated. The protocol details for each figure are outlined in FIG. 8.
Contraction experiments were performed in organ baths at 37° C. and continuous bubbling with 5% CO2/95% O2 to maintain a physiological pH in Tyrode's solution containing (all in mM): 120 NaCl, 1 MgCl2, 0.2 CaCl2, 5.4 KCl, 22.6 NaHCO3, 4.2 NaH2PO4, 5.6 glucose and 0.56 ascorbate. Calcium was adjusted using a 0.2 M calcium chloride solution. All BHM were first analysed at 3 Hz with 5 ms square pulses of 200 mA in order to pace at approximately the embryonic heart rate. BHM were mechanically stretched at intervals of 125 μm until Lmax, i.e. the tissue length were maximum twitch tension/force of contraction was recorded in the presence of maximally inotropically active calcium concentrations (2 mmol/L; Frank-Starling mechanism). Subsequently, BHM were subjected to different calcium concentrations (0.2, 0.4, 0.8, 1.2, 1.6, 2.0, 2.4 mM) and the twitch force recorded. […]

[3] = system: bioengineered heart muscle (BHM); assay: qPCR gene expression in BHM; settings: for pathological hypertrophy marker ANP expression / β-MHC/α-MHC expression ratio: growth factor added during cardiac maturation (FGF2: 10 ng/mL, TGFb1: 1 ng/mL)
Procedure: as §3, §1

[4] = system: bioengineered heart muscle (BHM); assay: Flow cytometry of disassociated BHM (cell composition, cardiomyocyte size, cell cycle, cell number); settings: for cardiomyocyte size: growth factor added during cardiac maturation (FGF2: 10 ng/mL, TGFb1: 1 ng/mL)
Procedure: as §3
For the initial BHM digestion protocol, BHMs were disassociated in 0.025 mg/ml Liberase TM (Roche), 30 mM 2,3-butanedione monoxime at 37° C. for 60 min in PBS. To preserve cell surface markers, BHM was disassociated using the same protocol as for the 2D digestion.
as §2

[5] = calcium adjusted to 1.2 mM during cardiac maturation
[6] = ASC-2-P during the entire differentiation protocol, data not shown

Question: Which beating activity ([1]; CHIR alone or with the differentiation factors used in FIG. 1b,c) does the source give for Cc1c[nH]c(-c2cnc(NCCNc3ccc(C#N)cn3)nc2-c2ccc(Cl)cc2Cl)n1 [CHIR, CHIR99021, reference compound] here?
Answer: The beating activity was “unable to induce any beating activity”.

Question: Which EC50 ([2]; 29-30 day old BHM (increased culture time), read-out: calcium EC50 (twitch tension)) does the source give for [Ca+2] [calcium] here?
Answer: Its EC50 is 700 µM.

Question: What about the EC50 ([2]; 22 day old BHM (previous data), read-out: calcium EC50 (twitch tension)) of the same molecule?
Answer: The EC50 was 200 µM.

Question: What about the elastic modulus [2, 5] of the same molecule?
Answer: The elastic modulus was “increase”.

Question: And the resting tension [2, 5]?
Answer: Its resting tension is “increase in resting tension”.

Question: What about the “twitch tension of the BHM” value ([2]; calcium adjusted to 1.2 mM during cardiac maturation (RPMI 0.42 mM)) of the same molecule?
Answer: The value was “greatly increased the twitch tension”.

Question: And the EC50 ([2]; characteristic of the BHM obtained by the method, read-out: calcium EC50)?
Answer: The EC50 was > 200 µM.

Question: What about the “calcium handling proteins by qPCR (CASQ2, PLN, ATP2A2, RYR2)” value ([3]; calcium adjusted to 1.2 mM, data not shown) of the same molecule?
Answer: The value was “no changes in calcium handling proteins”.

Question: Which “twitch tension/force of contraction, % of the control group” value ([2]; 2 μmol/L dorsomorphin with each medium exchange from day 6 onwards) does the source give for c1cc(-c2cnn3cc(-c4ccc(OCCN5CCCCC5)cc4)cnc23)ccn1 [dorsomorphin, reference compound] here?
Answer: The value was 47%.

Question: How did the “inotropic response with extended culture” value ([2]; 1 μM isoprenaline, 29-30 day vs 22 day old BHM, paced at 0.6 mM calcium) turn out when CC(C)NCC(O)c1ccc(O)c(O)c1 (stereo not shown) [isoprenaline, reference compound] was run?
Answer: The value was “increased inotropic response”.

Question: What about the inotropic response ([2]; 1 μM isoprenaline, paced conditions at 0.6 mM calcium) of the same molecule?
Answer: The inotropic response was “more than 40 μN”.

Question: How did the “twitch tension/force of contraction” value [2] turn out when “FGF2: growth factor FGF2 (Miltenyi Biotec)” was run?
Answer: Its value is “trend to decreased twitch tension”.

Question: What about the α-actinin ([1]; 5 ng/ml FGF2 during the first 3 days of differentiation, flow cytometry day 16) of the same molecule?
Answer: Its α-actinin is “trend to increased α-actinin”.

Question: What about the MESP1 expression ([1]; 5 ng/ml FGF2 during the first 3 days of differentiation, qPCR day 3) of the same molecule?
Answer: The MESP1 expression was “trend to increased MESP1 expression”.

Question: And the cardiomyocyte size [4]?
Answer: Its cardiomyocyte size is “increase in cardiomyocyte size”.

Question: And the “pathological hypertrophy marker ANP expression” value [3]?
Answer: The value was “induced (variably) pathological hypertrophy marker ANP”.

Question: And the β-MHC/α-MHC expression ratio [3]?
Answer: Its β-MHC/α-MHC expression ratio is “did not change β-MHC/α-MHC expression ratio”.

Question: Which results are given for “L-ascorbic acid 2 phosphate sesquimagnesium salt hydrate [ASC-2-P, reference compound]”?
Answer: BHM twitch tension/force of contraction ([2]; ASC-2-P supplemented during early BHM culture, days 0-13): significantly improved; cardiac differentiation efficiency in 2D protocol [1, 6]: without changes in cardiac differentiation efficiency; number of cells in 2D protocol [1, 6]: significantly increasing the number of cells; cardiomyocyte fraction ([4]; ASC-2-P supplemented days 0-13): trend to increased cardiomyocyte fraction; stromal cell fraction ([4]; ASC-2-P supplemented days 0-13): no change in the stromal cell fraction

Question: TGFβ1: growth factor TGFβ1 (Peprotech) was tested. Which “twitch tension/force of contraction” value [2] did it give?
Answer: Its value is “trend to increased twitch tension”.

Question: What about the “contractile function of BHM (FOC: force of contraction)” value ([2]; increasing TGFβ-1 during cardiac maturation phase, 0.3-10 ng/ml tested) of the same molecule?
Answer: Its value is “enhances contractile function of BHM; also recorded: enhancement of contractile function of BHM in a concentration dependent manner”.

Question: What about the cardiomyocyte size [4] of the same molecule?
Answer: Its cardiomyocyte size is “increase in cardiomyocyte size”.

Question: And the “pathological hypertrophy marker ANP expression” value [3]?
Answer: Its value is “decreased”.

Question: And the β-MHC/α-MHC expression ratio [3]?
Answer: The β-MHC/α-MHC expression ratio was “more mature β-MHC/α-MHC expression ratio”.

B1: BMP4: growth factor BMP4 (R&D Systems) (protein, UniProt P12644 293-408, looked up)
Bone morphogenetic protein 4: SPKHHSQRARKKNKNCRRHSLYVDFSDVGWNDWIVAPPGYQAFYCHGDCPFPLADHLNSTNHAIVQTLVNSVNSSIPKACCVPTELSAISMLYLDEYDKVVLKNYQEMVVEGCGCR
Question: With B1 as the molecule, how does the “BMP4 concentration giving optimal and consistent induction of MESP1 and α-actinin expression” value ([1]; BMP4 concentration varied whilst CHIR is present) read?
Answer: Its value is 5 ng/mL.
